Measured values as given in patent publication US20240024488A1, “COMPOUNDS AND USES THEREOF” (Foghorn Therapeutics Inc., priority 2020, published 2024).

Columns and labels:
[1] = molecular target: T1, HiBit-BRG1 fusion protein (Homo sapiens, UniProt P51532); assay: HiBiT-BRG1 cell-based degradation assay (Nano-Glo HiBiT Lytic Detection, 24 h); conditions: HeLa cell line expressing HiBit-BRG1 and LgBit; for Dmax: read-out: BRG1 HiBit Degradation Maximum (%); for DC50: read-out: BRMG1 HiBit Degradation IC50
T1 construct: expressed in transfected cells
T1 sequence (P51532 whole entry, the tested form may be a part): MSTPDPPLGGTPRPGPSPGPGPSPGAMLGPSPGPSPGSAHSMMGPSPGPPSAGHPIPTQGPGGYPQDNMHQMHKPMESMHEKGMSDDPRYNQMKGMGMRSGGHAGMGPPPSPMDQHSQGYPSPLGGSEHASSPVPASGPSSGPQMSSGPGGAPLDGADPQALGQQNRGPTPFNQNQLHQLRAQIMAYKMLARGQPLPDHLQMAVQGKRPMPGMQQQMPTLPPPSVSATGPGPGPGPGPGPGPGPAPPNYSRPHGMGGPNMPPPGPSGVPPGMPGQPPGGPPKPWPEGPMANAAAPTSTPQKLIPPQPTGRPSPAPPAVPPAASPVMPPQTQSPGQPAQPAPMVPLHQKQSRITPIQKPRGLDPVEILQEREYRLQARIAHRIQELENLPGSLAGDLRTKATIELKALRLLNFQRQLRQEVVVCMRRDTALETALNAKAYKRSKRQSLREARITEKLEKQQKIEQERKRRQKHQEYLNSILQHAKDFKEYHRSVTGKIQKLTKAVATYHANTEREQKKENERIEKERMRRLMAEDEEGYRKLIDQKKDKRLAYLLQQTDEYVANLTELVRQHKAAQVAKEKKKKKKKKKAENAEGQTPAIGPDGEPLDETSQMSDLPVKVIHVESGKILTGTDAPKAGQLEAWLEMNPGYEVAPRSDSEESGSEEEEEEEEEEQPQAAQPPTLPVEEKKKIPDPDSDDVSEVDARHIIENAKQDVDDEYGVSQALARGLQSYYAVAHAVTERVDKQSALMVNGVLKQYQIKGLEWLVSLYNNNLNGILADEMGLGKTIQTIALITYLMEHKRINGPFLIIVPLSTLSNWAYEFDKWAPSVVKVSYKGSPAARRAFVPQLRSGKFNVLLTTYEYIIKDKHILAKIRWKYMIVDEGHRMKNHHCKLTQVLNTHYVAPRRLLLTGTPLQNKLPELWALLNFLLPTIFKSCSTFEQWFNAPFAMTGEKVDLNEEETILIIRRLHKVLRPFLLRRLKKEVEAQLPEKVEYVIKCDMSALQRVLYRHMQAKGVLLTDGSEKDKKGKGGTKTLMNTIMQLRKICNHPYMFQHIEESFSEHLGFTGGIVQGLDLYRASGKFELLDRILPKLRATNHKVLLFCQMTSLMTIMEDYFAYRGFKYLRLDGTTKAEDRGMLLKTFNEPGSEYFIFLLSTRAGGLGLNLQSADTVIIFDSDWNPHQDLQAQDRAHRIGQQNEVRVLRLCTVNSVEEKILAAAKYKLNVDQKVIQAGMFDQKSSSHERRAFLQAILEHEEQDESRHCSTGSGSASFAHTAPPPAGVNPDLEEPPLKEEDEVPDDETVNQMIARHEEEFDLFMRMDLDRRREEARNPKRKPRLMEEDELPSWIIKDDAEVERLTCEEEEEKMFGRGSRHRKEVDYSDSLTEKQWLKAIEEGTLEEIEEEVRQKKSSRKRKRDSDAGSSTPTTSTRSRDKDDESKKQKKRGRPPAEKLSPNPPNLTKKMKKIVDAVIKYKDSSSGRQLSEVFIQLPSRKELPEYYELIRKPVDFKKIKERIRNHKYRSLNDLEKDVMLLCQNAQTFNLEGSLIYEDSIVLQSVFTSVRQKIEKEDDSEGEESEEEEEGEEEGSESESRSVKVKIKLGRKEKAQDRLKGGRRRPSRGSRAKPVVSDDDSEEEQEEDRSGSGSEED
Procedure, shortened: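 Stable HeLa line co-expressing HiBit-BRG1 and LgBit, 5000 cells/well, treated 24 h in a tissue culture incubator. Lysed with Nano-Glo HiBiT lytic reagent, luminescence read. % degradation normalized to DMSO (high control) and 2 μM reference BRM/BRG1 degrader (low control).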

[2] = molecular target: T2, HiBit-BRM fusion protein (Homo sapiens, UniProt P51531); assay: HiBiT-BRM cell-based degradation assay (Nano-Glo HiBiT Lytic Detection, 24 h); conditions: HeLa cell line expressing HiBiT-BRM; for DC50: read-out: BRM HiBit Degradation IC50
T2 construct: expressed in transfected cells
T2 sequence (P51531 whole entry, the tested form may be a part): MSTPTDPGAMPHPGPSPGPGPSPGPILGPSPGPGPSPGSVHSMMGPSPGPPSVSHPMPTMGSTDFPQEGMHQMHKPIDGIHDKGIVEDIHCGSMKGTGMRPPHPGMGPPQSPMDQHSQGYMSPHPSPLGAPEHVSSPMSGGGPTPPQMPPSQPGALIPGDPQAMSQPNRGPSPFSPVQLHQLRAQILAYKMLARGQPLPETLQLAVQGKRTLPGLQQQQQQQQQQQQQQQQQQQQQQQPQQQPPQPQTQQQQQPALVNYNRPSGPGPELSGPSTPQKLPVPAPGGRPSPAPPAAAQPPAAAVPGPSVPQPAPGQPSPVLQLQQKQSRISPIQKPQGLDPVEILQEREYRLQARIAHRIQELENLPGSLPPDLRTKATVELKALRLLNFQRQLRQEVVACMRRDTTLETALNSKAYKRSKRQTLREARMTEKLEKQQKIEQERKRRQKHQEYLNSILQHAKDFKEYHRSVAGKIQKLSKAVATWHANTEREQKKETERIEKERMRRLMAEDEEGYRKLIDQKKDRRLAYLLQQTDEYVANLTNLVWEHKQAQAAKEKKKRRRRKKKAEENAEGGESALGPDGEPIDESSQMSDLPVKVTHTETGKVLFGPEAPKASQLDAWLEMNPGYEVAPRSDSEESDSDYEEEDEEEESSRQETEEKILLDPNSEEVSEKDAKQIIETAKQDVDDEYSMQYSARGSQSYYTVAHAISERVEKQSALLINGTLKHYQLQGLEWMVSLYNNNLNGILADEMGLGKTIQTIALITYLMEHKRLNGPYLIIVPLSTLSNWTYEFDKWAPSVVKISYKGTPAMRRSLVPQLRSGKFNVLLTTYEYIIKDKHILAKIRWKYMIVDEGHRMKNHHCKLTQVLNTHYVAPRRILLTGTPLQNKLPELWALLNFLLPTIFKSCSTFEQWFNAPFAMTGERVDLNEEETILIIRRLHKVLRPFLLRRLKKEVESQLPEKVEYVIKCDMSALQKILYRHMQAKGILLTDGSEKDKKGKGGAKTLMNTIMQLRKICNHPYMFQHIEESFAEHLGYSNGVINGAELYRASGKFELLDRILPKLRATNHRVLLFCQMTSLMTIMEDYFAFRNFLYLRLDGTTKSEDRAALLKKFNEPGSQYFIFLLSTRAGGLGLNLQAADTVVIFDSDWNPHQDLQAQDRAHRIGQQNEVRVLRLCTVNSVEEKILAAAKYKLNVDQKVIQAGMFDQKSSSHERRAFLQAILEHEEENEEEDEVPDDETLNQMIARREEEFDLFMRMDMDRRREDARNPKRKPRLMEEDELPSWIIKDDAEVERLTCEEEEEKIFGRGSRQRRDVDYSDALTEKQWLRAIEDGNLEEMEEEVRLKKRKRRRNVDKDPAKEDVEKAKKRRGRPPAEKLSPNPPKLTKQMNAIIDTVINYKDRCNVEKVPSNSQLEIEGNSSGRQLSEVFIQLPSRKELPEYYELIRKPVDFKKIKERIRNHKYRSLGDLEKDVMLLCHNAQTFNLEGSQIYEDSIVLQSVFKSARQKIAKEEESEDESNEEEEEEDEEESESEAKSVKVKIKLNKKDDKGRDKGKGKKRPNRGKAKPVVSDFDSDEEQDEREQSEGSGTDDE
Procedure, shortened: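 Stable HiBiT-BRM HeLa line; 24 h compound exposure, top final 30 μM, 3-fold, 10 pts in duplicate. Lytic HiBiT/LgBiT luminescence readout. % degradation vs DMSO (0%) and 2 μM known BRM/BRG1 degrader (100%).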

SMILES | Dmax [1] | DC50 [2] | DC50 [1] | BRM HiBit Degradation Maximum (%) [2]
Cc1ncsc1-c1ccc([C@H](C)NC(=O)[C@@H]2C[C@@H](O)CN2C(=O)[C@@H](c2cc(N3CCC(CN[C@H]4CCc5[nH]c6nnc(-c7ccccc7O)cc6c5C4)CC3)no2)C(C)C)cc1 [Compound 159, (2S,4R)-4-hydroxy-1-((R)-2-(3-(4-((((S)-3-(2-hydroxyphenyl)-6,7,8,9-tetrahydro-5H-pyridazino[3,4-b]indol-6-yl)amino)methyl)piperidin-1-yl)isoxazol-5-yl)-3-methylbutanoyl)-N-((S)-1-(4-(4-methylthiazol-5-yl)phenyl)ethyl)pyrrolidine-2-carboxamide] | > 75% | > 10 nM | > 100 nM | A (“A” indicates maximum degradation ≥ 75%)
Cc1ncsc1-c1ccc(CNC(=O)[C@@H]2C[C@@H](O)CN2C(=O)[C@@H](NC(=O)CCC(=O)N[C@@H]2CCc3[nH]c4nnc(-c5ccccc5O)cc4c3C2)C(C)(C)C)cc1 [Compound 171, N1-((S)-1-((2S,4R)-4-hydroxy-2-((4-(4-methylthiazol-5-yl)benzyl)carbamoyl)pyrrolidin-1-yl)-3,3-dimethyl-1-oxobutan-2-yl)-N4-((R)-3-(2-hydroxyphenyl)-6,7,8,9-tetrahydro-5H-pyridazino[3,4-b]indol-6-yl)succinamide] | < 50% |  |  | C (“C” indicates maximum degradation < 50%)
Cc1ncsc1-c1ccc(CNC(=O)[C@@H]2C[C@@H](O)CN2C(=O)[C@@H](NC(=O)CCCC(=O)N[C@@H]2CCc3[nH]c4nnc(-c5ccccc5O)cc4c3C2)C(C)(C)C)cc1 [Compound 180, N1-((S)-1-((2S,4R)-4-hydroxy-2-((4-(4-methylthiazol-5-yl)benzyl)carbamoyl)pyrrolidin-1-yl)-3,3-dimethyl-1-oxobutan-2-yl)-N5-((R)-3-(2-hydroxyphenyl)-6,7,8,9-tetrahydro-5H-pyridazino[3,4-b]indol-6-yl)glutaramide] | < 50% |  |  | C (“C” indicates maximum degradation < 50%)
Cc1ncsc1-c1ccc([C@H](C)NC(=O)[C@@H]2C[C@@H](O)CN2C(=O)[C@@H](c2cc(OCCN[C@@H]3CCc4[nH]c5nnc(-c6ccccc6O)cc5c4C3)no2)C(C)C)cc1 [Compound 181, (2S,4R)-4-hydroxy-1-((R)-2-(3-(2-(((R)-3-(2-hydroxyphenyl)-6,7,8,9-tetrahydro-5H-pyridazino[3,4-b]indol-6-yl)amino)ethoxy)isoxazol-5-yl)-3-methylbutanoyl)-N-((S)-1-(4-(4-methylthiazol-5-yl)phenyl)ethyl)pyrrolidine-2-carboxamide] | < 50% | > 100 nM |  | A (“A” indicates maximum degradation ≥ 75%)
Cc1ncsc1-c1ccc([C@H](C)NC(=O)[C@@H]2C[C@@H](O)CN2C(=O)[C@@H](c2cc(OCCN3C[C@@H]4[C@H](C3)[C@H]4c3[nH]c4nnc(-c5ccccc5O)cc4c3C)no2)C(C)C)cc1 [Compound 272, (2S,4R)-4-hydroxy-1-((R)-2-(3-(2-((1R,5S,6R)-6-(3-(2-hydroxyphenyl)-5-methyl-7H-pyrrolo[2,3-c]pyridazin-6-yl)-3-azabicyclo[3.1.0]hexan-3-yl)ethoxy)isoxazol-5-yl)-3-methylbutanoyl)-N-((S)-1-(4-(4-methylthiazol-5-yl)phenyl)ethyl)pyrrolidine-2-carboxamide] | > 75% | < 10 nM | > 10 nM | A (“A” indicates maximum degradation ≥ 75%)
Cc1ncsc1-c1ccc([C@H](C)NC(=O)[C@@H]2C[C@@H](O)CN2C(=O)[C@H](c2cc([C@H]3CC[C@@H](c4cnc(N5CCC(c6c[nH]c7nnc(-c8ccccc8O)cc67)CC5)nc4)CC3)no2)C(C)C)cc1 [Compound 309, (2S,4R)-4-hydroxy-N-[(1S)-1-[4-(4-methyl-1,3-thiazol-5-yl)phenyl]ethyl]-1-[(2S)-3-methyl-2-{3-[(1s,4s)-4-(2-{4-[3-(2-hydroxyphenyl)-7H-pyrrolo[2,3-c]pyridazin-5-yl]piperidin-1-yl}pyrimidin-5-yl)cyclohexyl]-1,2-oxazol-5-yl}butanoyl]pyrrolidine-2-carboxamide] | < 50% | > 100 nM |  | B (“B” indicates maximum degradation ≥ 50%)
Cc1ncsc1-c1ccc([C@H](C)NC(=O)[C@@H]2C[C@@H](O)CN2C(=O)[C@H](c2cc([C@H]3CC[C@H](c4cnc(N5CCC(c6c[nH]c7nnc(-c8ccccc8O)cc67)CC5)nc4)CC3)no2)C(C)C)cc1 [Compound 310, (2S,4R)-4-hydroxy-N-[(1S)-1-[4-(4-methyl-1,3-thiazol-5-yl)phenyl]ethyl]-1-[(2S)-3-methyl-2-{3-[(1r,4r)-4-(2-{4-[3-(2-hydroxyphenyl)-7H-pyrrolo[2,3-c]pyridazin-5-yl]piperidin-1-yl}pyrimidin-5-yl)cyclohexyl]-1,2-oxazol-5-yl}butanoyl]pyrrolidine-2-carboxamide] | > 50% | > 10 nM | > 100 nM | A (“A” indicates maximum degradation ≥ 75%)

The next lines start with results.

Dmax [1] | DC50 [2] | DC50 [1] | SMILES | BRM HiBit Degradation Maximum (%) [2]
< 50% | > 10 nM |  | Cc1ncsc1-c1ccc([C@H](C)NC(=O)[C@@H]2C[C@@H](O)CN2C(=O)[C@@H](c2cc(OCCN(C)[C@@H]3CCc4[nH]c5nnc(-c6ccccc6O)cc5c4C3)no2)C(C)C)cc1 [Compound 156, (2S,4R)-4-hydroxy-1-((R)-2-(3-(2-(((R)-3-(2-hydroxyphenyl)-6,7,8,9-tetrahydro-5H-pyridazino[3,4-b]indol-6-yl)(methyl)amino)ethoxy)isoxazol-5-yl)-3-methylbutanoyl)-N-((S)-1-(4-(4-methylthiazol-5-yl)phenyl)ethyl)pyrrolidine-2-carboxamide] | A (“A” indicates maximum degradation ≥ 75%)
< 50% |  |  | Cc1ncsc1-c1ccc(CNC(=O)[C@@H]2C[C@@H](O)CN2C(=O)[C@@H](NC(=O)CCCCC(=O)N[C@@H]2CCc3[nH]c4nnc(-c5ccccc5O)cc4c3C2)C(C)(C)C)cc1 [Compound 170, N1-((S)-1-((2S,4R)-4-hydroxy-2-((4-(4-methylthiazol-5-yl)benzyl)carbamoyl)pyrrolidin-1-yl)-3,3-dimethyl-1-oxobutan-2-yl)-N6-((R)-3-(2-hydroxyphenyl)-6,7,8,9-tetrahydro-5H-pyridazino[3,4-b]indol-6-yl)adipamide] | C (“C” indicates maximum degradation < 50%)
< 50% | > 10 nM | > 1000 nM | Cc1ncsc1-c1ccc(C(C)NC(=O)C2CC(O)CN2C(=O)C(c2cc(OCCN3CC4C(C3)C4c3c(C)[nH]c4nnc(-c5ccccc5O)cc34)no2)C(C)C)cc1 [Compound 255, (2S,4R)-4-hydroxy-1-((R)-2-(3-(2-((1R,5S,6S)-6-(3-(2-hydroxyphenyl)-6-methyl-7H-pyrrolo[2,3-c]pyridazin-5-yl)-3-azabicyclo[3.1.0]hexan-3-yl)ethoxy)isoxazol-5-yl)-3-methylbutanoyl)-N-((S)-1-(4-(4-methylthiazol-5-yl)phenyl)ethyl)pyrrolidine-2-carboxamide] | A (“A” indicates maximum degradation ≥ 75%)
